According to patent publication EP0661266A1, “Substituted cyclic amine compounds as 5HT2 antagonists” (TOA EIYO LTD., priority 1993, dated 1995):
pIC50: −log10 of the molar value. Where a name gives a salt, the structure may show the parent alone. Read-outs that look alike come from different tables or passages of the source.

Assays:
serotonin 2 receptor = target: T1, serotonin 2 receptor (Rattus norvegicus, UniProt P14842); experiment: Measurement of serotonin 2 receptor antagonistic activity (serotonin contraction of excised rat tail artery spiral specimen); assay type: cell-based; settings: against the contraction of 3 x 10⁻⁶ serotonin, drug administered 10 minutes before cumulative serotonin, read-out: IC₅₀ value
T1 construct: A piece of wire was inserted into each of the thus excised blood vessels to prepare a spiral specimen; from tissue; host or cells: rat (Wistar-KY) abdominal side tail artery, spiral specimen
Procedure: [Measurement of serotonin 2 receptor antagonistic activity]
Male rats of Wistar-KY line (body weight, approximately 220 to 370 g) were sacrificed and subjected to bloodletting to excise abdominal side tail arteries. A piece of wire was inserted into each of the thus excised blood vessels to prepare a spiral specimen (approximately 1.5 x 30 mm). The specimen was suspended in a Magnus tube (10 ml; Krebs-Hensereit solution) with a load of 500 mg at 37°C, and a gas mixture of 95% O₂ + CO₂ was passed through the tube. Tensile force was measured using a tension transducer (TB-621T, manufactured by Nippon Koden) and writing the data on an ink recorder (FBA-253A, manufactured by Toa Denpa) via a pressure amplifier (AP-621G, manufactured by Nippon Koden). After 1 hour of equilibration time, the specimen was contracted with 10⁻⁵ M of serotonin, washed and then subjected to cumulative administration of 10⁻⁸ to 3 x 10⁻⁵ M serotonin at intervals of 45 minutes to record the resulting contraction twice. The second recording was used as a control. Thereafter, each of the drugs to be tested was administered 10 minutes before the commencement of the cumulative administration to evaluate its serotonin antagonism. […] In the table, each result was indicated by "+" when the IC₅₀ value was 1.0 x 10⁻⁷ M or more, "++" when the value was 9.9 x 10⁻⁸ to 1.0 x 10⁻⁸ M and "+++" when the value was 9.9 x 10⁻⁹ M or smaller.

platelet aggregation = experiment: Measurement of platelet aggregation inhibition activity (5-HTP plus collagen induced aggregation of platelet rich plasma); assay type: cell-based; settings: Oryctolagus cuniculus, rabbit PRP, 5-HTP final concentration 3 µM plus collagen in a concentration which alone does not cause aggregation, probit analysis, read-out: IC₅₀ value
Procedure: [Measurement of platelet aggregation inhibition activity]
Measurement of platelet aggregation was carried out using a platelet aggregation measuring apparatus NSB Hematracer 601.
Blood samples were collected from auricular arteries of male Japanese white rabbits (2 to 3 kg) using a syringe containing 1 volume of 3.8% sodium citrate per 9 volumes of blood and centrifuged at 900 rpm for 10 minutes. After collecting the resulting supernatant fluid as platelet rich plasma (PRP), the remaining lower layer was centrifuged at 3,000 rpm for 10 minutes to obtain platelet poor plasma (PPP). Platelets in the thus obtained PRP were counted using a microcell counter (Sysmex F-800, manufactured by Toa Iyo Denshi) and diluted with the PPP to a density of 30 x 10⁴/µl.
A 220 µl portion of PRP was mixed with 5 µl of 104 mM CaCl₂, incubated at 37°C for 1 minute and then mixed with 5 µl of a drug to be tested or physiological saline as a control. […] Activities to inhibit the aggregation reaction were measured to calculate 50% inhibition concentration (IC₅₀) by probit analysis, with the results shown in Table 2. In the table, each result was indicated by "+" when the IC₅₀ value was 1.0 x 10⁻⁶ M or more, "++" when the value was 9.9 x 10⁻⁷ to 1.0 x 10⁻⁷ M and "+++" when the value was 9.9 x 10⁻⁸ M or smaller.

[1] = tested on: 5-HTP-induced head-twitch; experiment: Measurement of activity to inhibit 5-HTP-induced head-twitch; assay type: in vivo, mouse; settings: read-out: IC₅₀ value
Procedure: [Measurement of activity to inhibit 5-HTP-induced head-twitch]
To each ICR male mouse of 4 weeks of age were administered 300 mg/kg of 5-HTP by intraperitoneal injection (i.p.) and then 0.03 to 3 mg/kg of each test drug 25 minutes thereafter by intravenous injection, thereby counting the number of head-twitch induced after 5 minutes of the administration (for 20 minutes) and calculating the IC₅₀ value. In the table, each result was indicated by "+" when the IC₅₀ value was […] or more, "++" when the value was 100 to 999 mg/kg and "+++" when the value was 99 mg/kg or less.

T1 sequence (P14842 whole entry): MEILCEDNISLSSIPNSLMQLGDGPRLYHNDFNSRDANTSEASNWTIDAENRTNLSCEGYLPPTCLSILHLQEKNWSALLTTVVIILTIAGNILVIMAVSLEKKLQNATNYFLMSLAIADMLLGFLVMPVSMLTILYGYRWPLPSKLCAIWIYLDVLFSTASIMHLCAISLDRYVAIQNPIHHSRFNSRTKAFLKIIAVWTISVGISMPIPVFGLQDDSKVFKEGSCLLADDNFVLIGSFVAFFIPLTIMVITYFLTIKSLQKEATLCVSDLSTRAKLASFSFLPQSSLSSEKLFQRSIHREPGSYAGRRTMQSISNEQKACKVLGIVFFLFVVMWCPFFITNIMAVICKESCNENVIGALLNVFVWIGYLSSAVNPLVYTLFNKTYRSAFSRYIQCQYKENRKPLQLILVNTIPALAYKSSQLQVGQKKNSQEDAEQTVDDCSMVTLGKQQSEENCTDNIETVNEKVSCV

SMILES | pIC50 (serotonin 2 receptor) | pIC50 (platelet aggregation) | ED50 ([1]; Mus musculus, iv) [mg/kg] | ED50 ([1]; ICR male mouse, 300 mg/kg 5-HTP i.p., test drug 0.03 to 3 mg/kg intravenous 25 minutes thereafter, head-twitch counted for 20 minutes) [mg/kg]
COc1ccc(S(=O)(=O)NC(=N)CCN2CCC(C(=O)c3ccc(F)cc3)CC2)cc1 [Compound I, 3-[4-(4-Fluorobenzoyl)piperidino]-N-(4-methoxybenzenesulfonyl)propionamidine oxalate] | 7.00 to 8.00 |  |  | 
CC(=O)Nc1ccc(C(=O)N(CCN2CCC(C(=O)c3ccc(F)cc3)CC2)c2ccccc2)cc1 [K, 4-Acetylamino-N-{2-[4-(4-fluorobenzoyl)piperidino]ethyl}-N-(phenyl)benzamide fumarate] | 7.00 to 8.00 |  |  | 
COc1cccc(CC(CCN2CCC(C(=O)c3ccc(F)cc3)CC2)c2ccccc2OC)c1 (stereo not drawn) [A, 4-(4-Fluorobenzoyl)-1-[3-(2-methoxyphenyl)-4-(3-methoxyphenyl)butyl]piperidine hydrochloride] | 7.00 to 8.00 |  |  | 
COc1ccc(S(=O)(=O)N(CCN2CCC(C(=O)c3ccc(F)cc3)CC2)C2CCCCC2)cc1 [E, N-Cyclohexyl-N-{2-[4-(4-fluorobenzoyl)piperidino]ethyl}-4-methoxybenzenesulfonamide oxalate] | 7.00 to 8.00 |  |  | 
COc1ccc(S(=O)(=O)N(CCN2CCC(C(=O)c3ccc(F)cc3)CC2)c2ccccc2OC)cc1 [C, N-{2-[4-(4-Fluorobenzoyl)piperidino]ethyl}-4-methoxy-N-(2-methoxyphenyl)benzenesulfonamide oxalate] |  | ≤ 6.00 |  | 
COc1ccccc1N(CCN1CCC(C(=O)c2ccc(F)cc2)CC1)C(=O)c1ccc(CN)cc1.O=C(O)C(=O)O [H, 4-Aminomethyl-N-{2-[4-(4-fluorobenzoyl)piperidino]ethyl}-N-(2-methoxyphenyl)benzamide oxalate] | 7.00 to 8.00 | 6.00 to 7.00 | > 1000 | 
COc1cccc(N(CCN2CCC(C(=O)c3ccc(F)cc3)CC2)C(=O)c2ccc(NC(C)=O)cc2)c1.O=C(O)/C=C/C(=O)O [J, 4-Acetylamino-N-{2-[4-(4-fluorobenzoyl)piperidino]ethyl}-N-(3-methoxyphenyl)benzamide fumarate] | 7.00 to 8.00 | > 7.00 | 100 to 999 | 
COc1ccccc1N(CCN1CCC(C(=O)c2ccc(F)cc2)CC1)C(=O)c1ccc(CO)cc1.O=C(O)C(=O)O [G, N-{2-[4-(4-Fluorobenzoyl)piperidino]ethyl}-4-hydroxymethyl-N-(2-methoxyphenyl)benzamide oxalate] |  | 6.00 to 7.00 | < 99 | 
O=C(c1ccc(F)cc1)C1CCN(CCn2c(=O)[nH]c3ccccc3c2=O)CC1 [ketanserin, reference compound] |  | 6.00 to 7.00 |  | < 99
COc1ccccc1N(CCN1CCC(C(=O)c2ccc(F)cc2)CC1)S(=O)(=O)c1ccc(F)cc1 [D, 4-Fluoro-N-{2-[4-(4-fluorobenzoyl)piperidino]ethyl}-N-(2-methoxyphenyl)benzenesulfonamide oxalate] | 7.00 to 8.00 |  |  | 
COc1cccc(C(=O)N(CCN2CCC(C(=O)c3ccc(F)cc3)CC2)c2ccccc2OC)c1 [B, N-{2-[4-(4-Fluorobenzoyl)piperidino]ethyl}-3-methoxy-N-(2-methoxyphenyl)benzamide oxalate] | 7.00 to 8.00 |  |  | 
COc1ccccc1N(CCN1CCC(C(=O)c2ccc(F)cc2)CC1)S(=O)(=O)c1ccc(CO)cc1 [F, N-{2-[4-(4-Fluorobenzoyl)piperidino]ethyl}-4-hydroxymethyl-N-(2-methoxyphenyl)benzenesulfonamide oxalate] | > 8.00 |  |  | 
